US20080171697A1, “Peptides Having For Example Antiangiogenic Activity and Applications Thereof In Therapeutics” (priority 2003, published 2008)
Positions of bridges follow the written chain, without caps; N, C: chain ends. No end group written: not given here.

Legend:
HUVECs [1] = experiment: Study of the peptide entry process in HUVECs; assay type: cell-based, human; conditions: for entry of the peptide into HUVECs: cotreatment with dextran beads for 5 h
From the text: No entry of the FITC-CycRAD peptide into HUVECs, nor entry of the FITC-CycRGD peptide into HeLas is observed.

HUVECs [2] = experiment: Intracellular routing of TEAM-VP (confocal microscope); assay type: cell-based, human; conditions: for codistribution with the lysosomes (anti-Lamp2-FITC): Streptavidin-Texas Red; for codistribution with the mitochondria (anti-VDAC): Streptavidin-FITC
Protocol: HUVECs treated with TEAM-VP for 8, 24 and 32 h are observed using a confocal microscope.

HUVEC cells [3] = experiment: Drop in mitochondrial membrane potential in cellula (JC-1, microscope); assay type: cell-based, human; conditions: HUVEC cells treated for 16-24 h with 15 μM, JC-1 labeling
HUVEC cells [4] = experiment: Cytochrome c release in cellula (microscopy, anti-cytochrome c and anti-VDAC); assay type: cell-based, human; conditions: 24 h of treatment, 10 μM
[5] = target: T1, αVβ3 integrins at the surface of endothelial cells (human, UniProt P06756 31-1048; P05106 27-788); experiment: peptide brought into contact with endothelial cells; endocytosis, confocal microscopy
T1 construct: whole, on cells; Native integrin on HUVEC cells; the cells also carry other integrins (αVβ5 was stained as well); also called αVβ3 receptors
T1 sequence (P06756 31-1048, chain 1 of 2): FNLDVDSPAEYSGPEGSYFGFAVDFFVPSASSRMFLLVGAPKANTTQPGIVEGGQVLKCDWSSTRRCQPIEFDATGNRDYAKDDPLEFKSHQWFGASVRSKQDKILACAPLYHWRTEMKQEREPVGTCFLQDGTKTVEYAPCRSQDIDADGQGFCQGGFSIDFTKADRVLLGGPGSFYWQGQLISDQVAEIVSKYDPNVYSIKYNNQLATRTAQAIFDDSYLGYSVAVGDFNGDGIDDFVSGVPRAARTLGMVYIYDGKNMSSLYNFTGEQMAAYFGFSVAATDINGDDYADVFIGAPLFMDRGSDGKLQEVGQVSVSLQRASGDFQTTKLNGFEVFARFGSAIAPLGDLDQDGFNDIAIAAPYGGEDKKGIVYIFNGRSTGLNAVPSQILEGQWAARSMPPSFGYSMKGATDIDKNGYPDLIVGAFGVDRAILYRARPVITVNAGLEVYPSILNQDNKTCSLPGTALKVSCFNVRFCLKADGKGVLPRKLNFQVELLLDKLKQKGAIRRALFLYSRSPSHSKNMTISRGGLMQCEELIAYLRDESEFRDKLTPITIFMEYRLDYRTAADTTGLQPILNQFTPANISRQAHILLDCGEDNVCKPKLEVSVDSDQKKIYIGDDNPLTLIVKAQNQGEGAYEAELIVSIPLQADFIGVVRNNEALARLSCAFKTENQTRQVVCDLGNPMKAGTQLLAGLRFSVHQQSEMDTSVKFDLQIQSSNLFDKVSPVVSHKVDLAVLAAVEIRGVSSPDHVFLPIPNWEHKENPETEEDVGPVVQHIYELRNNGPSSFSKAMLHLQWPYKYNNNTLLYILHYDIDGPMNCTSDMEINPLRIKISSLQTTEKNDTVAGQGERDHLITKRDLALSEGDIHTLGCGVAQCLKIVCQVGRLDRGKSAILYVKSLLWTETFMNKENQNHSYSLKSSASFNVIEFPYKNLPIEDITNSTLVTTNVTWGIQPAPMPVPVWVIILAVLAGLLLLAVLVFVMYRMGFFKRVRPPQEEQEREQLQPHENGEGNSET
T1 sequence (P05106 27-788, chain 2 of 2): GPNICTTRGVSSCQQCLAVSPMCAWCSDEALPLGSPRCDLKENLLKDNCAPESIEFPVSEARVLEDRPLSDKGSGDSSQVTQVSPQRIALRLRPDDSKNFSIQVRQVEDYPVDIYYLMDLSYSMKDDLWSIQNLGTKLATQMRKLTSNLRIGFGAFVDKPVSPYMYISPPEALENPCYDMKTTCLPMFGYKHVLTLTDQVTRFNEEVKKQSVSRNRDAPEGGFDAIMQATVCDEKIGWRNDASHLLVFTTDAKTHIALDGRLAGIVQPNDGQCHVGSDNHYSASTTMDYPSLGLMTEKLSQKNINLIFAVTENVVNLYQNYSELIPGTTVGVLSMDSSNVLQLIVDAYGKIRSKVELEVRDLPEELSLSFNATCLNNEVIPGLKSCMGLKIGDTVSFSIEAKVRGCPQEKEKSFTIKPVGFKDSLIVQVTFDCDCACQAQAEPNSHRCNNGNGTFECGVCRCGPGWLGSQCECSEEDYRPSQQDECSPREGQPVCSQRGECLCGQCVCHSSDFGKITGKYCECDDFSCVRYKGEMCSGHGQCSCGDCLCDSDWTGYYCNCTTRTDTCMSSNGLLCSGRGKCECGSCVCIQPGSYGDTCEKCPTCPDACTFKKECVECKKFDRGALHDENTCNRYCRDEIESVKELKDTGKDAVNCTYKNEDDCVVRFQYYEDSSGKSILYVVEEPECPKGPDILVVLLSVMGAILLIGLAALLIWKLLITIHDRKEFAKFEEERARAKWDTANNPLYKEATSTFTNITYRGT

[6] = target: T1, αVβ3 integrins at the surface of …; experiment: flow cytometry of FITC-labeled peptide on HUVEC cells (FIG. 2)
Protocol: The HUVEC cells were or were not preincubated for 30 min at ambient temperature with 200 μM of nonlabeled CycRGD peptide before the addition of FITC-CycRGD peptide (10 μM) for 45 min., and were analyzed by flow cytometry (FIG. 2b).

Molecule: GG*CRADMFG*CGG-amide (FITC, cyclised, GG/CGG flanks, amide) [FITC-CycRAD]
- entry of the peptide into HUVECs (HUVECs [1]): No entry

Molecule: GG*CRGDMFG*C-GG-LLFIHFRIGSRHSRIG-amide (GGCRGDMFGCGGLLFIHFRIGSRHSRIG-NH2; disulfide 3-10; N-terminus assumed; SMILES CC[C@H](C)[C@H](NC(=O)[C@H](CCCNC(=N)N)NC(=O)[C@H](CO)NC(=O)[C@H](Cc1c[nH]cn1)NC(=O)[C@H](CCCNC(=N)N)NC(=O)[C@H](CO)NC(=O)CNC(=O)[C@@H](NC(=O)[C@H](CCCNC(=N)N)NC(=O)[C@H](Cc1ccccc1)NC(=O)[C@H](Cc1c[nH]cn1)NC(=O)[C@@H](NC(=O)[C@H](Cc1ccccc1)NC(=O)[C@H](CC(C)C)NC(=O)[C@H](CC(C)C)NC(=O)CNC(=O)CNC(=O)[C@@H]1CSSC[C@H](NC(=O)CNC(=O)CN)C(=O)N[C@@H](CCCNC(=N)N)C(=O)NCC(=O)N[C@@H](CC(=O)O)C(=O)N[C@@H](CCSC)C(=O)N[C@@H](Cc2ccccc2)C(=O)NCC(=O)N1)[C@@H](C)CC)[C@@H](C)CC)C(=O)NCC(N)=O) [TEAM-VP]
- entry of the peptide under sodium azide+deoxyglucose (HUVECs [1]; HUVECs, treatment with sodium azide+deoxyglucose): inhibited by treatment with sodium azide+deoxyglucose
- codistribution with the lysosomes (anti-Lamp2-FITC) (HUVECs [2]; 8 h of treatment): codistributes with the lysosomes
- codistribution with the mitochondria (anti-VDAC) (HUVECs [2]; 24 h): partially codistributes
- codistribution with the lysosomes (anti-Lamp2-FITC) (HUVECs [2]; 24 h of treatment): would appear to leave these organelles
- codistribution with the mitochondria (anti-VDAC) (HUVECs [2]; 32 h): totally codistributes
- codistribution with the Golgi apparatus (anti-Golgin) (HUVECs [2]; throughout the treatment (8, 24 and 32 h)): No codistribution
- drop in mitochondrial membrane potential in cellula (HUVEC cells [3]): Drop in potential observed
- release of cytochrome c in cellula (HUVEC cells [4]): Release of cytochrome C observed

Molecule: GG*CRGDMFG*CGG-amide (GGCRGDMFGCGG-NH2; disulfide 3-10; also: labeled with FITC in the binding assays) [FITC-CycRGD]
- colocalization with dextran beads (HUVECs [1]; HUVECs, cotreatment for 5 h): colocalize with dextran beads
- entry of the peptide into HUVECs (HUVECs [1]): enter the HUVECs

B1: TEAM-VP (SEQ ID No 2: GG*CRGDMFG*C-GG-[…]-amide) (peptide)
peptide: GGCRGDMFGCGGLLFIHFRIGSRHSRIG-NH2
modifications: disulfide 3-10; not fully specified; also: with or without biotin, FITC label also used
notes: also called chimeric peptide
- binding result [5]: binds

B2: GG*CRGDMFG*CGG-amide (CycRGD) (peptide)
peptide: GGCRGDMFGCGG-NH2
modifications: disulfide 3-10; also: labeled with FITC in the binding assays
notes: Cyclised targeting part of TEAM-VP; also called FITC-CycRGD; CycRGD peptide
- binding result [6]: binds
